# In patent US20220168252A1, “RETINOID DERIVATIVES WITH ANTITUMOR ACTIVITY” (BIOGEM S.C. A R.L., priority 2016, published 2022):
# Counter-ions that a name gives are not always drawn. Like-named read-outs stand apart in the source and are kept apart here.
# How the values were obtained:
# [1] = tested on: Human Adarotene-resistant NCI-H460 (R9A) NSCLC; experiment: Anti-proliferative activity, H460-R9A, 24 h + 48 h recovery, SRB; type: cell-based; details: 24 h exposure, read-out: IC50 ± SD H460-R9A
# Protocol: (§1) Tumor cells were exposed for 24 h to new atypical retinoids (AR) and the anti-proliferative activity assessed upon 48 h recovery in drug-free medium with the SRB assay. RI=Resistance Index (ratio between the IC50 values of resistant and sensitive cells).
# MM487-Luc mesothelioma [2] = experiment: Anti-proliferative activity, MM487-Luc, 24 h + 48 h recovery, SRB; type: cell-based; details: Homo sapiens, 24 h exposure, read-out: IC50 ± SD MM487-Luc
# Protocol: as §1
# U87MG glioblastoma cells = experiment: Anti-proliferative activity, U87MG, 24 h + 48 h recovery, SRB; type: cell-based; details: Homo sapiens, U-87 MG, 24 h exposure, read-out: IC50 ± SD U87MG
# Protocol: as §1
# [3] = tested on: Human Adarotene-resistant NCI-H460 (R9A) NSCLC; details: Zuco V. et al, Neoplasia 2005; cited from earlier work
# [4] = tested on: H460-R9A retinoid resistant cells; experiment: H460-R9A lung cancer subcutaneous xenograft in mice; details: Cisplatin 4 mg/kg IV q7dx4w, MIR002 50 mg/kg OS bid, qdx5/wx4w
# Protocol: CD-1 nude and NOG mice, females, 4-5 weeks-old, were housed under specific-pathogen-free conditions in individually ventilated cages.
# Cells were cultured in appropriated media and expanded in a 37° C. incubator with saturated humidity and an atmosphere of 95% air and 5% CO2, and were sub-cultured every 2-3 days. Before the injection in mice, cells were checked with MycoAlert® Mycoplasma Detection Kit (Lonza) to exclude mycoplasma contamination, counted by trypan blue dye exclusion, evaluated for cell viability (>95%).
# H-460-R9A lung cancer cells were suspended at a concentration of 25×10^6/ml. 5×10^6 tumor cells were suspended in 0.2 ml of M199, then inoculated subcutaneously on the right flank of each animal.
# MIR002 was dissolved to a concentration of 3.3 mg/mL in 10% DMSO, 5% ethanol, 20% Kolliphor® EL and 65% Na2CO3 10 mM pH 11 and administered by gavage; Cisplatin was dissolved to a concentration of 0.8 mg/mL in sterile saline solution and administered intravenously.
# Four days after inoculation, tumor masses of H460-R9A were measured in length and width using a Mitutoyo caliper, mice were sorted basing on tumor volume (TV) and treatments were started. Tumor volume was calculated as follows: TV (mm3)=(Length (mm)×Width (mm)2)/2. Tumor growth was followed by biweekly measurements. Tumor Growth Inhibition (TGI) for each group was calculated as follows: TGI (%)=100−(mean TVtreated/mean TVcontrol×100). Mice were weighed twice a week.
# Human NCI-H460 NSCLC = experiment: Anti-proliferative activity, NCI-H460, 72 h, SRB; type: cell-based; details: for cytotoxic activity / IC50 range on NCI-H460 cells: SRB/MTT assay
# Protocol: (§2) The anti-proliferative activity of the POLA1/HDAC dual inhibitors MIR002 and GEM144 was assessed on various cell lines from solid and hematological cancers.
# (§3) Human tumor cells were treated with POLA1/HDAC dual inhibitors and cell survival assessed upon 72 h with the SRB assay. HDAC=Histone Deacetylase. POLA1=DNA Polymerase Alpha 1. RI=Resistance Index.
# [5] = tested on: parent A2780 ovarian cancer cell line; experiment: Anti-proliferative activity, A2780, 24 h + 48 h recovery, SRB; type: cell-based; details: Homo sapiens, 24 h exposure, read-out: IC50 ± SD A2780
# Protocol: as §1
# [6] = tested on: A2780-Dx multidrug-resistant ovarian cancer cell line; experiment: Anti-proliferative activity, A2780-Dx, 24 h + 48 h recovery, SRB; type: cell-based, Human; details: for RI (Resistance Index, ratio between the IC50 values of resistant and sensitive cells): A2780-Dx vs A2780, 24 h exposure; for IC50: Homo sapiens, A2780/DX, 24 h exposure, SRB, read-out: IC50 ± SD A2780-Dx
# Protocol: as §1
# As described by Zuco V. et al in Neoplasia, 2005 July; 7(7):667-77, H460-R9A are about 70 fold resistant with respect to parental H460 to Adarotene. […] Ovarian cancer A2780 and its clone derivative A2780DX (Doxorubicin resistant) which overexpress P-glycoprotein (PGP), were used to evaluate the possibility of these new molecules to be absorbed at intestinal level. In fact, the overexpression of PGP, as well known, drastically reduces the possibility, after oral administration, of absorption of several chemotherapeutic agents (i.e. Paclitaxel, doxorubicin etc.). Since the IC50 of the tested compounds in A2780 and A2780DX, have similar values we conclude that they are not PGP substrates and they could be administrated to the patients via oral route.
# U87MG-Luc (Glioma) = experiment: Orthotopic glioma murine model (U87MG-Luc), IVIS imaging; type: in vivo, mice; details: 100 mg/kg IP, qdx5x4w, intracranial U87MG-Luc
# Protocol: Orthotopic glioma murine model. 1×10^6 Brain glioblastoma bioluminescent cells (U-87 MG) were injected intracranically and tumor growth was evaluated through IVIS imaging system.
# Tumor growth was followed by biweekly measurements. […] Mice were weighed twice a week. […] Tumor growth was further followed by weekly BLI measurements. TGI was calculated as for the H460 trial.
# The activity of compound 2 (RC1375) was evaluated on glioma xenograft murine models. Brain glioblastoma bioluminescent cells (U-87 MG) were injected intracranically and tumor growth was evaluated through IVIS imaging system. After a week of injection, 2 (RC1375) (100 mg/kg) was administered intraperitoneally to mice (qdx5x4w).
# [7] = tested on: ST1926-resistant H460 (H460-R9A) NSCLC; experiment: Anti-proliferative activity, H460-R9A, 72 h, SRB; type: cell-based, human
# Protocol: as §2, §3
# [8] = tested on: parent A2780 ovarian carcinoma; experiment: Anti-proliferative activity, A2780, 72 h, SRB; type: cell-based, human; details: read-out: A2780 IC50 ± SD
# Protocol: as §2, §3
# [9] = tested on: multidrug-resistant A2780-Dx ovarian carcinoma; experiment: Anti-proliferative activity, A2780-Dx, 72 h, SRB; type: cell-based, human
# Protocol: as §2, §3
# MM473-Luc mesothelioma = experiment: Anti-proliferative activity, MM473-Luc, 72 h, SRB; type: cell-based, Human
# Protocol: as §2
# (§4) HDAC=Histone Deacetylase. POLA1=DNA Polymerase Alpha 1. N.e.=not evaluated.
# MM487-Luc mesothelioma [10] = experiment: Anti-proliferative activity, MM487-Luc, 72 h, SRB; type: cell-based, Human
# Protocol: as §2, §4
# B16-Luc (Melanoma) = experiment: Anti-proliferative activity, B16-Luc, 72 h, SRB; type: cell-based, mouse
# Protocol: as §2, §4
# NB4 (leukemia) = experiment: Cell survival, NB4, 72 h, MTT; type: cell-based, Human; details: read-out: NB4 (leukemia) IC50 ± SD
# Protocol: as §2
# (§5) Tumor cells were treated with POLA1/HDAC dual inhibitors and cell survival assessed upon 72 h with the MTT assay. HDAC=Histone Deacetylase. POLA1=DNA Polymerase Alpha 1.
# THP-1 (leukemia) = experiment: Cell survival, THP-1, 72 h, MTT; type: cell-based, Human
# Protocol: as §2, §5
# U2932 (lymphoma) = experiment: Cell survival, U2932, 72 h, MTT; type: cell-based, Human
# Protocol: as §2, §5
# Z138 (lymphoma) = experiment: Cell survival, Z138, 72 h, MTT; type: cell-based, Human
# Protocol: as §2, §5
# DU145 prostate carcinoma = details: 72 h; SRB
# Protocol: (§6) To this end, cells in the logarithmic phase of growth were seeded in 96-wells plastic plates, incubated overnight in culture medium, and treated for 72 h with scalar concentrations (2-fold dilution series) of the compounds.
# (§7) Tumor cells were exposed to the inhibitors, and the anti-proliferative activity assessed upon 72 h with the SRB assay. N.e.=not evaluated.
# HT29 colon carcinoma = details: 72 h; SRB
# Protocol: as §6, §7
# SW620 colon carcinoma = details: 72 h; SRB
# Protocol: as §6, §7
# [11] = Homo sapiens, NCI-H460, chronically exposed 72 h, SRB (Table 2), read-out: IC50 ± SD
smiles,measurement,setting,value
"O=C(O)/C=C/c1ccc(-c2ccc(O)c(C34CC5CC(CC(C5)C3)C4)c2)cc1 [Adarotene, reference compound]",IC50,[1],26900 ± 700 nM
same,IC50,MM487-Luc mesothelioma [2],9200 ± 300 nM
same,IC50,U87MG glioblastoma cells,1630 ± 100 nM
same,resistance of H460-R9A with respect to parental H460,[3],about 70 fold
same,BWL Day + 35,[4]; Adarotene 15 mg/Kg OS q7dx5x4w,12%
CC(C)(Oc1ccc(-c2ccc(/C=C/C(=O)O)cc2)cc1C12CC3CC(CC(C3)C1)C2)C(=O)NO [BIO146],cytotoxic activity / IC50 range on NCI-H460 cells,Human NCI-H460 NSCLC; 72 h,micro molar range
"N.N.[Cl][Pt][Cl] [Cisplatin, reference compound]",TGI Day + 35,[4]; combination same doses,34%
"O=C(O)/C=C/c1ccc(-c2ccc(OCCCC(=O)NO)c(C34CC5CC(CC(C5)C3)C4)c2)cc1 [Compound 1, 3-[3′-Adamantan-1-yl-4′-(3-hydroxycarbamoyl-propoxy)-biphenyl-4-yl]-acrylic acid]",IC50,Human NCI-H460 NSCLC; [11],< 5000 nM
same,IC50,[1],8300 ± 200 nM
same,IC50,MM487-Luc mesothelioma [2],1700 ± 80 nM
same,IC50,[5],4200 ± 300 nM
same,"RI (Resistance Index, ratio between the IC50 values of resistant and sensitive cells)",[6],0.9
same,IC50,[6],3900 ± 100 nM
"O=C(O)/C=C/c1ccc(-c2ccc(OCCCCC(=O)NO)c(C34CC5CC(CC(C5)C3)C4)c2)cc1 [Compound 2, 3-[3′-Adamantan-1-yl-4′-(4-hydroxycarbamoyl-butoxy)-biphenyl-4-yl]-acrylic acid]",IC50,Human NCI-H460 NSCLC; [11],< 5000 nM
same,IC50,[1],5900 ± 100 nM
same,IC50,MM487-Luc mesothelioma [2],1900 ± 200 nM
same,IC50,U87MG glioblastoma cells,5500 ± 900 nM
same,IC50,[5],3700 ± 300 nM
same,"RI (Resistance Index, ratio between the IC50 values of resistant and sensitive cells)",[6],1.3
same,IC50,[6],4500 ± 70 nM
same,BLI Average (Day),U87MG-Luc (Glioma); day +35,1.31 × 10^5 ± 1.26 × 10^5 p/s/cm^2/sr
same,TGI,U87MG-Luc (Glioma),72%
same,melting point,,224 °C (dec.)
"O=C(O)C=Cc1ccc(-c2ccc(OCCCCCCCC(=O)NO)c(C34CC5CC(CC(C5)C3)C4)c2)cc1 [Compound 3, 3-[3′-Adamantan-1-yl-4′-(7-hydroxycarbamoyl-heptyloxy)-biphenyl-4-yl]-acrylic acid]",IC50,Human NCI-H460 NSCLC; [11],≤ 5000 nM
"NCCSSCCNC(=O)CCCOc1ccc(-c2ccc(/C=C/C(=O)O)cc2)cc1C12CC3CC(CC(C3)C1)C2 [Compound 4, 2-(2-{4-[3-Adamantan-1-yl-4′-(2-carboxy-vinyl)-biphenyl-4-yloxy]-butyrylamino}-ethyldisulfanyl)-ethyl-ammonium; trifluoroacetate]",IC50,Human NCI-H460 NSCLC; [11],≤ 10000 nM
"O=C(O)/C=C/c1ccc(-c2ccc(OCCCC(=O)NCCSSCCNC(=O)C(Cc3ccc(O)c(Br)c3)=NO)c(C34CC5CC(CC(C5)C3)C4)c2)cc1 [Compound 5, 3-{3′-Adamantan-1-yl-4′-[3-(2-{2-[3-(3-bromo-4-hydroxy-phenyl)-2-hydroxyimino-propionylamino]-ethyldisulfanyl}-ethylcarbamoyl)-propoxy]-biphenyl-4-yl}-acrylic acid]",IC50,Human NCI-H460 NSCLC; [11],< 5000 nM
"O=C(O)/C=C/c1ccc(-c2ccc(OC(=O)CCC(=O)NCCSSCCNC(=O)/C(Cc3ccc(O)c(Br)c3)=N/O)c(C34CC5CC(CC(C5)C3)C4)c2)cc1 [Compound 6, 3-{3′-Adamantan-1-yl-4′-[3-(2-{2-[3-(3-bromo-4-hydroxy-phenyl)-2-hydroxyimino-propionylamino]-ethyldisulfanyl}-ethylcarbamoyl)-propionyloxy]-biphenyl-4-yl}-acrylic acid]",IC50,Human NCI-H460 NSCLC; [11],< 100 nM
"O=C(O)/C=C/c1ccc(-c2ccc(OCCC(=O)NO)c(C34CC5CC(CC(C5)C3)C4)c2)cc1 [Compound 12, 3-[3′-Adamantan-1-yl-4′-(2-hydroxycarbamoyl-ethoxy)-biphenyl-4-yl]-acrylic acid]",IC50,[1],10600 ± 300 nM
"O=C(COc1ccc(-c2ccc3cc(C(=O)O)ccc3c2)cc1C12CC3CC(CC(C3)C1)C2)NOC1CCCCO1 (stereo not shown) [Compound 13, 6-{3-Adamantan-1-yl-4-[(tetrahydro-pyran-2-yloxycarbamoyl)-methoxy]-phenyl}-naphthalene-2-carboxylic acid]",IC50,[1],16900 ± 500 nM
"O=C(COc1ccc(-c2ccc3cc(C(=O)O)ccc3c2)cc1C12CC3CC(CC(C3)C1)C2)NO [Compound 14, 6-(3-Adamantan-1-yl-4-hydroxycarbamoylmethoxy-phenyl)-naphthalene-2-carboxylic acid]",IC50,[1],2300 ± 400 nM
"NNC(=O)COc1ccc(-c2ccc(C=CC(=O)O)cc2)cc1C12CC3CC(CC(C3)C1)C2 [Compound 17, 3-(3′-adamantan-1-yl-4′-hydrazinocarbonylmethoxy-biphenyl-4-yl)-acrylic acid trifluoroacetate]",IC50,[1],17300 ± 1300 nM
CC(Oc1ccc(-c2ccc(/C=C/C(=O)O)cc2)cc1C12CC3CC(CC(C3)C1)C2)C(=O)NO (stereo not shown) [GEM144],IC50,"Human NCI-H460 NSCLC; 72 h, SRB (Table 8), read-out: NCI-H460 IC50 ± SD",260 ± 9 nM
same,cytotoxic activity / IC50 range on NCI-H460 cells,Human NCI-H460 NSCLC; 72 h,nano molar range
same,RI (Resistance Index),[7]; H460-R9A vs NCI-H460,8.5
same,IC50,"[7]; SRB, read-out: H460-R9A IC50 ± SD",2200 ± 90 nM
same,IC50,[8],950 ± 40 nM
same,IC50,"[9]; 72 h, SRB, read-out: A2780-Dx IC50 ± SD",660 ± 8 nM
same,RI (Resistance Index),"[9]; A2780-Dx vs A2780, 72 h",0.7
same,substrate for the P-gp drug efflux pump,"[9]; indicated by low resistance index, A2780-Dx vs A2780",very poor substrate
same,"cytotoxicity, MM473 mesothelioma",MM473-Luc mesothelioma,very effective
same,IC50,MM473-Luc mesothelioma; read-out: MM473-Luc IC50 ± SD,1400 ± 200 nM
same,"cytotoxicity, MM487 mesothelioma",MM487-Luc mesothelioma [10],very effective
same,IC50,MM487-Luc mesothelioma [10]; read-out: MM487-Luc IC50 ± SD,730 ± 200 nM
same,"cytotoxicity, B16 melanoma",B16-Luc (Melanoma),very effective
same,IC50,B16-Luc (Melanoma); read-out: B16-Luc (Melanoma) IC50 ± SD,370 ± 30 nM
same,IC50,NB4 (leukemia),230 ± 30 nM
same,"cytotoxicity, THP-1 leukemia",THP-1 (leukemia),very effective
same,IC50,THP-1 (leukemia); read-out: THP-1 (leukemia) IC50 ± SD,520 ± 20 nM
same,"cytotoxicity, U2932 lymphoma",U2932 (lymphoma),very effective
same,IC50,U2932 (lymphoma); read-out: U2932 (lymphoma) IC50 ± SD,770 ± 100 nM
same,"cytotoxicity, Z138 lymphoma",Z138 (lymphoma),very effective
same,IC50,Z138 (lymphoma); read-out: Z138 (lymphoma) IC50 ± SD,160 ± 30 nM
same,"cytotoxicity, DU145 prostate carcinoma",DU145 prostate carcinoma,very effective
same,"cytotoxicity, HT29 colon carcinoma",HT29 colon carcinoma,very effective
same,"cytotoxicity, SW620 colon carcinoma",SW620 colon carcinoma,very effective
